Tests used:
[1] = tested on: IL-8 release from Caco-2 monolayers; test: Release of IL-8 from polarised Caco-2 monolayers stimulated with LPS, TNF-α, IFN-β; format: cell-based, human; conditions: for % increase in anti-inflammatory activity compared to equivalent formulation without bromelain (difference of means): plus 80 ug/ml bromelain
Method: Inflammatory model of Caco-2 polarised monolayer stimulated with inflammatory mediators LPS, TNF-α, IFN-β: Polarised Caco-2 models were generated as previously described. When cell cultures reached a baseline TER of >1000/cm^2, the monolayers were stimulated by addition of 0.6 ml containing 50 ng/ml IFN-β, 10 μg/ml LPS and 5 ng/ml TNFα to the basolateral compartment. Immediately after the addition of the stimulation cocktail 0.25 ml of GaRP±0-80 μg/ml bromelain was applied to the apical compartment. After the 24 h incubation culture supernatants from the apical side were collected for quantitation of IL-8.
The human colorectal adenocarcinoma cell-line C2BBe1 was grown and maintained in Dulbecco's modified Eagle's medium (DMEM) supplemented with 10% v/v fetal bovine serum (FBS), 4 mM L-glutamine, 100 U/ml penicillin and […] streptomycin. All experiments were conducted on C2BBe1 cells within 12 passages after thawing.
In an experiment to evaluate the anti-inflammatory effect of bromelain or various GaRP formulations, 0.25 ml of test samples was applied to the apical side for 24 h, at the same time 0.6 ml of a cocktail containing 50 ng/ml IFN+10 ug/ml LPS+5 ng/ml TNF was added to the basolateral side in this model. After the 24 h incubation culture supernatants from the apical side were collected and IL-8 quantitated by ELISA.

Macrophage [2] = conditions: menthol was not tested in vitro; published literature; cited from earlier work
[3] = tested on: Bacteria (AIEC obtained from IBD and IBS patients); conditions: menthol was not tested in vitro; published literature; cited from earlier work
Enterocyte [4] = conditions: menthol was not tested in vitro; published literature; cited from earlier work
Enterocyte [5] = test: Observed therapeutic effective dose determined in the in vitro experiments (Table 4); format: cell-based, human
Method: (§1) The observed therapeutic effective dose was determined in the in vitro experiments described herein.
(§2) Table 4 summarises the observed therapeutic effective dose for each GaRP formulation component.

Macrophage [6] = test: as above; format: cell-based, human
Method: as §1, §2

MUC17 = test: qPCR of MUC gene expression in Caco-2:HT-29-MTX 75:25 coculture; format: cell-based, human; conditions: 24 h
Method: (§3) Caco-2:HT-29-MTX 75:25 coculture: This co-culture model was used to simulate the human colonic epithelium (Hilgendorh C, 2000). The Caco-2 cells (passage 8) and the HT29-MTX cells (passage 9) were combined at a 75:25 ratio in DMEM with 10% FBS. The combined cells (6.4×10^4 cells/ml) were seeded into 25 cm^2 in a total of 5 ml per flask. The coculture was incubated at 37° C. in a 5% CO2 atmosphere with medium refreshed every 48 h. At 15 days post seeding, the coculture monolayer was washed three times in DMEM and replaced with 5 ml of pre-warmed test solution, and then incubated for 24 h.
(§4) Before RNA extraction, cells were collected by centrifugation at 5,000 g for 5 min, 4° C. the cell pellet was washed three times in ice-cold PBS followed by resuspension in 500 μl of ice-cold PBS. The total RNA of 2×10^6 cells per sample was extracted using a PureLink RNA mini kit with 1.5 μg of RNA (with A260/A280 ratio between 2.00 and 2.20) reverse-transcribed into cDNA using a High Capacity cDNA RT kit. The expression of the genes of interest was quantified using the PowerUp SYBR green Master mix. In brief, triplicate qPCR reactions was set up using 20 ng cDNA and 500 nM primers in a MicroAmp optical 384-well reaction plates using a Biomek-4000 automated liquid handler (Beckman Coulter, Brea, CA, USA). Amplification was run in a ViiA7 Real-Time PCR system (Thermo Fisher Scientific) at the following conditions: 95° C. for 20 seconds followed by 40 cycles of 95° C. for 1 second and 60° C. for 20 seconds; and a melt curve stage: 95° C., 15 s; 60° C., 60 s. The results of qPCR were analysed with the 2-ΔΔCT method as previously described using the QuantStudio Software V1.3 (Applied Biosystems). Relative gene expression values were normalized by using GAPDH and 18S as the multiple endogenous reference genes.
(§5) A 75:25 caco-2/HT-29 co-culture was established as previously described herein and the effect of a 24 h exposure to bromelain, threonine, sodium butyrate, vitamin D3 and the two different GaRP formulations on the expression of the following MUC genes was investigated using qPCR. At the end of the 24 h treatment, the supernatant in the 25 cm^2 flasks was collected and the coculture monolayer was trypsinised as previously described herein.
(§6) This co-culture model was used to simulate the human colonic epithelium. The Caco-2 cells (passage 8) and the HT29-MTX cells (passage 9) were combined at a 75:25 ratio in DMEM with 10% FBS. The combined cells (6.4×10^4 cells/ml) were seeded into 25 cm^2 in a total of 5 ml per flask. The coculture was incubated at 37° C. in a 5% CO2 atmosphere with medium refreshed every 48 h. At 15 days post seeding, the coculture monolayer was washed three times in DMEM and replaced with 5 ml of pre-warmed test solution, and then incubated for 24 h.
(§7) The test solutions of cholecalciferol (VD3) and L-Threonine (L-Thr) (Sigma-Aldrich) in culture medium were prepared one day before the treatment. At 15 days post seeding, the coculture monolayer was washed three times at hourly interval with culture medium, which was then replaced with 5 ml of pre-warmed test solution, and then incubated for 24 h.
(§8) At the end of the 24 h treatment, the supernatant in the 25 cm^2 flasks was collected and the coculture monolayer was trypsinised as previously described. Cells were collected by centrifugation at 5,000 g for 5 min, 4° C. After washed three times with ice-cold PBS, the cells were resuspended in 500 μl of ice-cold PBS. The total RNA of 2×10^6 cells per sample was extracted using the PureLink RNA mini kit (Invitrogen). For real-time PCR analysis, 1.5 μg of RNA (with A260/A280 ratio between 2.00 and 2.20) was reverse transcribed into cDNA using the High Capacity cDNA RT kit (Applied Biosystems, Foster City, CA, USA).
(§9) The expression of the human MUC2 and MUC7 genes in the Caco-2:HT-29-MTX 75:25 coculture was quantified using the PowerUp SYBR green Master mix (Applied Biosystems). […]

MUC6 = test: as above; format: cell-based, human; conditions: 24 h
Method: as §3, §4, §5, §6, §7, §8, §9

MUC20 = test: as above; format: cell-based, human; conditions: 24 h
Method: as §3, §4, §5, §6, §7, §8, §9

MUC1 = test: as above; format: cell-based, human; conditions: 24 h
Method: as §3, §4, §5, §6, §7, §8, §9

MUC5AC = test: as above; format: cell-based, human; conditions: 24 h
Method: as §3, §4, §5, §6, §7, §8, §9

MUC13 = test: as above; format: cell-based, human; conditions: 24 h
Method: as §3, §4, §5, §6, §7, §8, §9

MUC4 = test: as above; format: cell-based, human; conditions: 24 h
Method: as §3, §4, §5, §6, §7, §8, §9

MUC19 = test: as above; format: cell-based, human; conditions: 24 h
Method: as §3, §4, §5, §6, §7, §8, §9

MUC15 = test: as above; format: cell-based, human; conditions: 24 h
Method: as §3, §4, §5, §6, §7, §8, §9

MUC7 = test: as above; format: cell-based, human; conditions: 24 h
Method: as §3, §4, §5, §6, §7, §8, §9

MUC2 = test: as above; format: cell-based, human; conditions: 24 h
Method: as §3, §4, §5, §6, §7, §8, §9

MUC16 = test: as above; format: cell-based, human; conditions: 24 h
Method: as §3, §4, §5, §6, §7, §8, §9

MUC5B = test: as above; format: cell-based, human; conditions: 24 h
Method: as §3, §4, §5, §6, §7, §8, §9

MUC12 = test: as above; format: cell-based, human; conditions: 24 h
Method: as §3, §4, §5, §6, §7, §8, §9

MUC3 = test: as above; format: cell-based, human; conditions: 24 h
Method: as §3, §4, §5, §6, §7, §8, §9

MUC8 = test: as above; format: cell-based, human; conditions: 24 h
Method: as §3, §4, §5, §6, §7, §8, §9

[7] = tested on: Bacteria (AIEC obtained from IBD and IBS patients); test: Observed therapeutic effective dose determined in the in vitro experiments (Table 4); format: cell-based, E. coli; conditions: Not relevant = no anti-attachment or anti-invasive effect on the AIEC
Method: as §1, §2

[8] = formulation or component plus 80 ug/ml bromelain, 24 h
[9] = without bromelain, test sample apical 24 h, IFN+LPS+TNF cocktail basolateral

## N[C@@H](Cc1c[nH]c2ccccc12)C(=O)O [L-tryptophan]
[1]; [8]
  % inhibition of the release of IL-8 Median ± SEM: 76 ± 2%
[1]
  % increase in anti-inflammatory activity compared to equivalent formulation without bromelain (difference of means): 62%
[1]; [9]
  % inhibition of the release of IL-8 Median ± SEM: 14 ± 7%

## CC1CCC(C(C)C)C(O)C1 (stereo not drawn) [Menthol]
Macrophage [2]
  therapeutic effective dose, Target cell Macrophage (pg/cell): 20 pg/cell
[3]
  therapeutic effective dose, Target cell Bacteria (fg/cell): Not relevant
Enterocyte [4]
  therapeutic effective dose, Target cell Enterocyte (pg/cell): 20 pg/cell

## C=C1CC[C@H](O)C/C1=C/C=C1\CCC[C@]2(C)[C@@H]([C@H](C)CCCC(C)C)CC[C@@H]12 [Vitamin D3, Cholecalciferol]
Enterocyte [5]
  observed therapeutic effective dose, Target cell Enterocyte (pg/cell): 0.018 pg/cell
Macrophage [6]
  observed therapeutic effective dose, Target cell Macrophage (pg/cell): 0.36 pg/cell
MUC17; 0.048 μg/ml vitamin D3
  Effect on MUC gene expression, MUC17: Decreased by: by 31%
MUC17; 0.48 μg/ml vitamin D3
  Effect on MUC gene expression, MUC17: Decreased by: by 40%
MUC6; 0.048 μg/ml vitamin D3
  Effect on MUC gene expression, MUC6: No effect
MUC6; 0.48 μg/ml vitamin D3
  Effect on MUC gene expression, MUC6: No effect
MUC20; 0.048 μg/ml vitamin D3
  Effect on MUC gene expression, MUC20: Decreased by: by 18%
MUC20; 0.48 μg/ml vitamin D3
  Effect on MUC gene expression, MUC20: Decreased by: by 27%
MUC1; 0.048 μg/ml vitamin D3
  Effect on MUC gene expression, MUC1: Decreased by: by 37%
MUC1; 0.48 μg/ml vitamin D3
  Effect on MUC gene expression, MUC1: Decreased by: by 58%
MUC5AC; 0.048 μg/ml vitamin D3
  Effect on MUC gene expression, MUC5AC: Decreased by: by 42%
MUC5AC; 0.48 μg/ml vitamin D3
  Effect on MUC gene expression, MUC5AC: Decreased by: by 42%
MUC13; 0.048 μg/ml vitamin D3
  Effect on MUC gene expression, MUC13: Decreased by: by 37%
MUC13; 0.48 μg/ml vitamin D3
  Effect on MUC gene expression, MUC13: Decreased by: by 56%
MUC4; 0.048 μg/ml vitamin D3
  Effect on MUC gene expression, MUC4: No effect
MUC4; 0.48 μg/ml vitamin D3
  Effect on MUC gene expression, MUC4: No effect
MUC19; 0.048 μg/ml vitamin D3
  Effect on MUC gene expression, MUC19: No effect
MUC19; 0.48 μg/ml vitamin D3
  Effect on MUC gene expression, MUC19: No effect
MUC15; 0.048 μg/ml vitamin D3
  Effect on MUC gene expression, MUC15: No effect
MUC15; 0.48 μg/ml vitamin D3
  Effect on MUC gene expression, MUC15: No effect
MUC7; 0.048 μg/ml vitamin D3
  Effect on MUC gene expression, MUC7: No effect
MUC7; 0.48 μg/ml vitamin D3
  Effect on MUC gene expression, MUC7: No effect
MUC7; titration, FIGS. 9A & 9B
  effect on the expression of MUC7, individually: did not exert a major effect
MUC2; 0.048 μg/ml vitamin D3
  Effect on MUC gene expression, MUC2: No effect
MUC2; 0.48 μg/ml vitamin D3
  Effect on MUC gene expression, MUC2: No effect
MUC2; titration, FIGS. 9A & 9B
  effect on the expression of MUC2, individually: did not exert a major effect
MUC16; 0.048 μg/ml vitamin D3
  Effect on MUC gene expression, MUC16: No effect
MUC16; 0.48 μg/ml vitamin D3
  Effect on MUC gene expression, MUC16: No effect
MUC5B; 0.048 μg/ml vitamin D3
  Effect on MUC gene expression, MUC5B: Decreased by: by 56%
MUC5B; 0.48 μg/ml vitamin D3
  Effect on MUC gene expression, MUC5B: Decreased by: by 63%
MUC12; 0.048 μg/ml vitamin D3
  Effect on MUC gene expression, MUC12: No effect
MUC12; 0.48 μg/ml vitamin D3
  Effect on MUC gene expression, MUC12: No effect
MUC3; 0.048 μg/ml vitamin D3
  Effect on MUC gene expression, MUC3: Decreased by: by 43%
MUC3; 0.48 μg/ml vitamin D3
  Effect on MUC gene expression, MUC3: No effect
MUC8; 0.048 μg/ml vitamin D3
  Effect on MUC gene expression, MUC8: Decreased by: by 30%
MUC8; 0.48 μg/ml vitamin D3
  Effect on MUC gene expression, MUC8: Decreased by: by 50%
[7]
  observed therapeutic effective dose, Target cell Bacteria (fg/cell): Not relevant

## CCCC(=O)O [sodium butyrate]
Enterocyte [5]
  observed therapeutic effective dose, Target cell Enterocyte (pg/cell): 15 pg/cell
Macrophage [6]
  observed therapeutic effective dose, Target cell Macrophage (pg/cell): 300 pg/cell
[1]; [8]
  % inhibition of the release of IL-8 Median ± SEM: 71 ± 7%
[1]
  % increase in anti-inflammatory activity compared to equivalent formulation without bromelain (difference of means): 60%
[1]; [9]
  % inhibition of the release of IL-8 Median ± SEM: 11 ± 15%
